Blank lines part the entries; values can stand above or below the molecule they belong to.
Tests used:
[1] = system: Zucker diabetic fatty rats; experiment: Blood glucose analysis in ZDF rats; assay type: in vivo, rat; details: for Blood glucose concentration compared to the untreated ZDF rats: 17-week-old ZDF rats; for blood glucose, mean: ZDF rats
Method: (§1) Blood glucose and HbA1c was measured in 10- and 17-week-old male Zucker diabetic fatty rats (Genetic Model Inc.), control rats (Genetic Model Inc.) and male ZDF rats treated for seven weeks with 30 mg/kg/d of compound (II-B), 35 mg/kg/d of compound (III-B) and 1 mg/kg/d ramipril. Fifteen animals were analyzed in each group.
Blood samples for glucose determination were obtained from ZDF rats using standard sampling tubes. Within 30 minutes of collection, samples were separated from the cells by centrifugation. Quantitative determination of blood glucose in serum was performed with an enzymatic in vitro test from Roche Diagnostics GmbH (Gluco-quant, Roche Diagnostics GmbH) using the automated clinical chemistry analyzer Boehringer Mannheim/Hitachi 912.

[2] = system: Zucker diabetic fatty rats; experiment: HbA1c analysis in ZDF rats; assay type: in vivo, rat; details: for HbA1c values compared to the untreated ZDF rats: 17-week-old ZDF rats; for HbA1c, mean: ZDF rats
Method: as §1
To obtain blood samples for HbA1c determination, disposable capillary tubes were used. HbA1c values were obtained from hemolyzed whole blood samples with a turbidimetric inhibition immunoassay (Tina-quant, Roche Diagnostics GmbH) and hemoglobin concentrations were determined in a second channel on an automated clinical chemistry analyzer (Boehringer Mannheim/Hitachi 912). HbA1c concentration in percent were calculated from HbA1c to total hemoglobin.

[3] = system: fat ZDF rats; experiment: Histological examination of kidneys of ZDF rats after 6 months treatment; assay type: in vivo, rat; set-up: Armanni-Ebstein cells MEAN SEVERITY / Glomerulosclerosis MEAN SEVERITY / Atrophy: renal tubule MEAN SEVERITY / Casts: renal tubule MEAN SEVERITY: scale not given here; details: for Incidence of glomerulosclerosis or associated degenerative lesions compared to fat ZDF controls: in words
Method: (§2) The protein and creatinine excretion in the urine of male Zucker Diabetic Fatty (ZDF) Rats (ZDF Gmi fa/fa) and heterozygous control animals (ZDF Gmi −/+) of 10, 17, 27 and 37 weeks age was determined. In further groups, diabetic rats were chronically given either ramipril (1 mg/kg/day, in drinking water) or a compound of formula (II-B) (30 mg/kg/day, in food) over a period from 10 to 37 weeks. The animals were sacrificied after 37 weeks, and their kidneys examined histologically.
In the attached tables a summary of the findings on the kidneys after a treatment period of 6 months is listed.

[4] = system: ZDF rats; experiment: Dot blot analysis of kidney AGE subtypes (CML, CEL, pentosidine) in ZDF rats; assay type: in vivo, rat
Method: (§3) Kidney AGE values were determined by Dot blot analysis (Stracke et al., Exp. Clin. Endocrinol. Diabets 2002, 109, 330-336) and Reversed-phase high performance liquid chromatography or RP-HPLC (Drusch et al., Food Chem. 1999, 65, 547-553).
Kidney-samples for the dot blot analysis were obtained from 17-week-old male ZDF rats, control rats and ZDF rats treated for seven weeks with 30 mg/kg/d of compound (II-B) and 35 mg/kg/d of compound (III-B). Three animals of each group were sacrificed, the kidneys removed and immediately frozen in liquid nitrogen. Grinding of the kidneys was performed in liquid nitrogen using a freezer mill (Freezer 6750, C3 Analysetechnik GmbH). Kidney sample (10 mg) was dissolved in 1 ml phosphate buffered saline (PBS containing 0.5 g/l Tween 20, 0.5 mM PMSF, […]). The solution was treated two times for five seconds with an ultrasonic cell disrupter (45% power, Bandolin Sonoplus HD 2070), centrifuged for 20 minutes at 4000 rpm and the supernatant was used for dot blot analysis. The nitrocellulose membrane was placed in the dot blot apparatus and washed twice with Tris Buffered Saline (TBS), 100 μl TBS/well. For each sample, 10 μg protein (protein concentration of the samples were determined with the DC Protein Assay, Bio Rad) was diluted in 100 μl TBS and loaded on to the nitrocellulose membrane (Amersham). The membrane was incubated over night in TBS with Tween 20 (TBST; 20 mM Tris, 137 mM NaCl, 0.05% v/v Tween 20) with 5% non-fat dry milk at 4° C. and incubated for 1 hour at room temperature using the following antibody concentration: anti-CML 011 (Biologo) 0.25 μg/ml, anti-CEL (Biologo) 0.25 μg/ml and anti-pentosidine 012 (Biologo) 0.25 μg/ml. After extensive washing in TBST with 5% non-fat dry milk, membranes were exposed to […] anti-mouse IgG antibodies (Dianova) for one hour at room temperature. Membranes were washed again and exposed to the enhanced chemofluorescence detection system (Amersham) according to manufacturer's instructions. Relative fluorescence was determined with the Fluor-Imager 595 (Molecular Dynamics) and quantified using the Image-Quant software. Results were expressed in relative fluorescence (rf) times 10^5 (rf*10^5).

[5] = system: ZDF rats; experiment: RP-HPLC analysis of CML in kidney and heart of ZDF rats; assay type: in vivo, rat; details: for mean CML conc.: RP-HPLC, ZDF Placebo = 100
Method: as §3
[…] Two animals of each group were analyzed. Grinding of the kidney and heart was performed in liquid nitrogen using a freezer mill (Freezer 6750, C3 Analysetechnik GmbH). Hydrolysis of the organ samples was performed with 6 M hydrochloric acid (HCl) at 110° C. for 12 hours. Sample treatment with o-phthaldialdehyde (OPA) and RP-HPLC was performed as described in Drusch et al., Food Chem. 1999, 65, 547-553.

[6] = acute treatment; Chen et al., Hypertension 2001; cited from earlier work
[7] = system: ZDF rats; experiment: Urinary albumin/creatinine in ZDF rats, treatment starting at an animal age of 6 months; assay type: in vivo, rat; details: start at age 6 months, mean
[8] = system: isolated aortic rings of rabbits; experiment: Relaxation of aortic rings by acetylcholine in rabbits fed an atherogenic diet; assay type: in vivo, White New Zealand rabbits; details: varied diet rabbits, mean ± SEM
Text: It was shown in the atherogenic rabbit model (White New Zealand rabbits were fed with 0.25% cholesterol plus 3% coconut oil) that even a short 6 week period of an atherogenic diet leads to sustained endothelial dysfunction, even though the animals received a normal diet for 3 months thereafter. […] The endothelium-dependent relaxation of isolated aortic rings of rabbits as well as the release of nitric oxide and superoxide from endothelial cells serve as measures of endothelial dysfunction. […] (II-B) [table]

[9] = system: Zucker Diabetic Fatty (ZDF) Rats (ZDF Gmi fa/fa); experiment: Urinary excretion of albumin and creatinine in ZDF rats treated from 10 to 37 weeks of age; assay type: in vivo, rat; details: ZDF rats, mean
Method: as §2

[10] = system: endothelial cells; experiment: NO and superoxide release from endothelial cells in rabbits fed an atherogenic diet; assay type: in vivo, White New Zealand rabbits; details: varied diet rabbits; mean ± SEM
Text: It was shown in the atherogenic rabbit model (White New Zealand rabbits were fed with 0.25% cholesterol plus 3% coconut oil) that even a short 6 week period of an atherogenic diet leads to sustained endothelial dysfunction, even though the animals received a normal diet for 3 months thereafter.
The endothelium-dependent relaxation of isolated aortic rings of rabbits as well as the release of nitric oxide and superoxide from endothelial cells serve as measures of endothelial dysfunction.
• Groups: • Standard: 18 weeks normal diet • Atherogenic: 18 weeks atherogenic diet (3% Coconut oil+0.25% Cholesterol) • Varied diet (Var.): 6 weeks atherogenic diet+12 weeks normal diet • Varied Diet+ramipril: 6 weeks atherogenic diet+12 weeks normal diet+ramipril • Varied diet+compound (II-B): 6 weeks atherogenic diet+12 weeks normal diet+cpd. (II-B)
NO and O2^− are markers for endothelial function: increased relaxation and increased NO levels are beneficial, while increased O2^− formation inhibits the beneficial effects of NO.

[11] = system: Goto-Kakizaki (GK) rats; experiment: Albumin and creatinine excretion in Goto-Kakizaki (GK) rats; assay type: in vivo, rat; details: start at age 6 months, mean
Method: The albumin and creatinine excretion in Goto-Kakizaki (GK) rats was determined. GK rats are a model for Type II diabetes. One group was left untreated, one was treated with the ACE/NEP inhibitor of formula (II-B) and one group was treated with the ACE inhibitor ramipril. [table]

[12] = system: Wistar rats; experiment: Albumin and creatinine excretion in Wistar rats (non-diabetic nephropathy); assay type: in vivo, rat; details: Wistar rats, start at age 6 months, mean
Method: The albumin and creatinine excretion in Wistar rats was determined. One group was left untreated, one was treated with the ACE/NEP inhibitor of formula (II-B) and one group was treated with the ACE inhibitor ramipril. Wistar rats are non-diabetic and develop proteinuria and structural kidney damage during adult life. Wistar rats are therefore a model for non-diabetic nephropathy. [table]

[13] = age 10 weeks (start of treatment)
[14] = age 17 weeks (treated for seven weeks)
[15] = 17-week-old ZDF rats treated for seven weeks, dot blot
[16] = kidneys, male fat ZDF rats, terminal sacrifice
[17] = kidneys, male fat ZDF rats, terminal sacrifice, examined: D1 9, D4 8

Structure (SMILES): CC(=O)S[C@@H](Cc1ccccc1)C(=O)N[C@H]1Cc2ccccc2[C@H]2CCC[C@@H](C(=O)O)N2C1=O [cpd. (III-B)]
Blood glucose concentration compared to the untreated ZDF rats ([1]; in words): significantly lower
blood glucose, mean [1, 13]: 10.37 mM
blood glucose, mean [1, 14]: 19.74 mM
Blood glucose value compared with the ACE inhibitor ramipril ([1]; in words): lower values
HbA1c values compared to the untreated ZDF rats ([2]; in words): significantly lower
HbA1c, mean [2, 13]: 5.60%
HbA1c, mean [2, 14]: 7.19%
HbA1c value compared with the ACE inhibitor ramipril ([2]; in words): lower values
Incidence of glomerulosclerosis or associated degenerative lesions compared to fat ZDF controls [3]: no differences
AGE-subtype CEL in the kidneys (anti-CEL), mean [4, 15]: 52.60 rf * 10^5
AGE-subtype CML in the kidneys (anti-CML 011), mean [4, 15]: 38.67 rf * 10^5
AGE-subtype pentosidine in the kidneys (anti-pentosidine 012), mean [4, 15]: 40.70 rf * 10^5
Kidney AGE (Nε-(carboxymethyl)lysine or CML) values ([4]; diabetic rats, summary in words): lowers the CML value significantly
AGE values for subtype CEL compared to untreated ZDF rats ([4]; kidney, dot blot, in words): Lower AGE values
AGE values for subtype pentosidine compared to untreated ZDF rats ([4]; kidney, dot blot, in words): Lower AGE values
mean CML conc. ([5]; hearts of 17-week-old ZDF rats): 66%
mean CML conc. ([5]; kidneys of 17-week-old ZDF rats): 60%
mean CML conc. ([5]; kidneys of 37-week-old ZDF rats): 93%
CML concentration in the heart of 17-week-old ZDF rats ([5]; in words): also reduces
CML concentration in the kidneys of 17-week-old ZDF rats ([5]; in words): also reduces

Structure (SMILES): O=C(N[C@H]1CCS[C@H]2CCC[C@@H](C(=O)O)N2C1=O)[C@@H](S)Cc1ccccc1 [omapatrilat]
Natriuretic response compared with ACE inhibitor fosinoprilat [6]: greater natriuretic response

Dilatation: pelvis GRADE 2: number of animals [3, 16]: 1
Dilatation: pelvis GRADE 3: number of animals [3, 16]: 2
Dilatation: pelvis GRADE 4: number of animals [3, 16]: 2
Dilatation: pelvis MEAN SEVERITY [3, 16]: 3.2
Dilatation: pelvis: number of animals with finding (total affected) [3, 17]: 5
Structure (SMILES): CCOC(=O)[C@H](CCc1ccccc1)N[C@@H](C)C(=O)N1[C@H](C(=O)O)C[C@@H]2CCC[C@@H]21 [ramipril, reference compound]
Blood glucose concentration compared to the untreated ZDF rats ([1]; in words): No significant difference
blood glucose, mean [1, 13]: 11.74 mM
blood glucose, mean [1, 14]: 27.33 mM
Albumin/Creatinine ([7]; 6 weeks treatment): 1249.59 mg/mmol
Albumin/Creatinine ([7]; 12 weeks treatment): 841.69 mg/mmol
Albumin/Creatinine ([7]; Basal): 1330.99 mg/mmol
Relaxation of aortic rings by acetylcholine ([8]; ACh 10^−5 mol/L after phenylephrine 10^−7 mol/L): 83.73 ± 4.03%
Relaxation of aortic rings by acetylcholine ([8]; ACh 10^−6 mol/L after phenylephrine 10^−7 mol/L): 77.34 ± 3.7%
Relaxation of aortic rings by acetylcholine ([8]; ACh 10^−7 mol/L after phenylephrine 10^−7 mol/L): 51.86 ± 4.43%
Relaxation of aortic rings by acetylcholine ([8]; ACh 10^−8 mol/L after phenylephrine 10^−7 mol/L): 13.08 ± 2.22%
HbA1c values compared to the untreated ZDF rats ([2]; in words): No significant difference
HbA1c, mean [2, 13]: 5.66%
HbA1c, mean [2, 14]: 9.48%
Urine excretion Albumin ([9]; week 0 of treatment): 0.24 mg/kg/h
Urine excretion Albumin/Creatinine ([9]; week 0 of treatment): 37.31 mg/mmol
Urine excretion Albumin ([9]; week 7 of treatment): 1.36 mg/kg/h
Urine excretion Albumin/Creatinine ([9]; week 7 of treatment): 207.35 mg/mmol
Urine excretion Albumin ([9]; week 17 of treatment): 6.26 mg/kg/h
Urine excretion Albumin/Creatinine ([9]; week 17 of treatment): 694.20 mg/mmol
Urine excretion Albumin ([9]; week 27 of treatment): 10.11 mg/kg/h
Urine excretion Albumin/Creatinine ([9]; week 27 of treatment): 1077.88 mg/mmol
Incidence of glomerulosclerosis or associated degenerative lesions compared to fat ZDF controls [3]: no differences
Armanni-Ebstein cells GRADE 1: number of animals [3, 16]: 1
Armanni-Ebstein cells GRADE 2: number of animals [3, 16]: 6
Armanni-Ebstein cells MEAN SEVERITY [3, 16]: 1.9
Atrophy: renal tubule GRADE 1: number of animals [3, 16]: 4
Atrophy: renal tubule GRADE 2: number of animals [3, 16]: 4
Atrophy: renal tubule GRADE 3: number of animals [3, 16]: 1
Atrophy: renal tubule MEAN SEVERITY [3, 16]: 1.7
Casts: renal tubule GRADE 1: number of animals [3, 16]: 1
Casts: renal tubule GRADE 2: number of animals [3, 16]: 7
Casts: renal tubule MEAN SEVERITY [3, 16]: 1.9
Glomerulosclerosis GRADE 2: number of animals [3, 16]: 4
Glomerulosclerosis GRADE 3: number of animals [3, 16]: 2
Glomerulosclerosis MEAN SEVERITY [3, 16]: 2.3
Armanni-Ebstein cells: number of animals with finding (total affected) [3, 17]: 7
Atrophy: renal tubule: number of animals with finding (total affected) [3, 17]: 9
Casts: renal tubule: number of animals with finding (total affected) [3, 17]: 8
Glomerulosclerosis: number of animals with finding (total affected) [3, 17]: 6
NO [10]: 368.31 ± 42.25 nM
O2^− (superoxide) [10]: 48.09 ± 7.91 nM
Albumin/Creatinine ([11]; 6 weeks treatment): 161.71 mg/mmol
Albumin/Creatinine ([11]; 12 weeks treatment): 244.89 mg/mmol
Albumin/Creatinine ([11]; Basal): 103.95 mg/mmol
Albumin/Creatinine ([12]; 6 weeks treatment): 184.27 mg/mmol
Albumin/Creatinine ([12]; 12 weeks treatment): 188.40 mg/mmol
Albumin/Creatinine ([12]; Basal): 130.45 mg/mmol
